According to the NIST ThermoML archive (doi:10.1016/j.tca.2006.02.028):
Numbers after ± are expanded uncertainties.

Assay: excess molar enthalpy (molar enthalpy of mixing); xn = mol fraction of the nth substance listed
Settings: 298.15 K, 101 kPa, Liquid, Titration calorimetry

excess molar enthalpy (x1 = 0.05) [kcal/mol]	excess molar enthalpy (x1 = 0.1) [kcal/mol]	excess molar enthalpy (x1 = 0.15) [kcal/mol]	excess molar enthalpy (x1 = 0.2) [kcal/mol]	excess molar enthalpy (x1 = 0.3) [kcal/mol]	excess molar enthalpy (x1 = 0.4) [kcal/mol]	excess molar enthalpy (x1 = 0.5) [kcal/mol]	excess molar enthalpy (x1 = 0.6) [kcal/mol]	excess molar enthalpy (x1 = 0.7) [kcal/mol]	excess molar enthalpy (x1 = 0.8) [kcal/mol]	excess molar enthalpy (x1 = 0.9) [kcal/mol]	excess molar enthalpy (x1 = 1) [kcal/mol]	excess molar enthalpy (x2 = 0) [kcal/mol]	SMILES
-0.0779 ± 0.000956	-0.131 ± 0.00167	-0.171 ± 0.00191	-0.193 ± 0.00215	-0.203 ± 0.00239	-0.201 ± 0.00215	-0.186 ± 0.00215	-0.163 ± 0.00191	-0.139 ± 0.00167	-0.0985 ± 0.0012	-0.0576 ± 0.000717	0 ± 0.000239	–	CO [methanol] + O
–	–	–	–	–	–	–	–	–	–	–	–	0 ± 0.000239	O [water] + CO
